Reference: the supplement of paper PMC4862054

Tests used:
Conditions in all cases: incubation time: 72 h
[1] = tested on: BT-474; test: drug sensitivity score (DSS), CellTox Green (DSS (AUC-based score)); higher = stronger drug effect (viability inhibition or cytotoxicity); extreme values may be limits of the assay
Procedure, shortened: (§1)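 After 72 h of incubation in 384-well plates with compound at 5 concentrations (10-fold steps, 10,000-fold range set per compound), breast cancer cell lines seeded in 20 µl suspension were read first for CellTox Green fluorescence at 485/520 nm. CellTiter-Glo luminescence was measured next, after 10 min at room temperature. Normalisation on each plate used 0.1 % DMSO and a positive kill control, and the drug sensitivity score was computed from the area under the fitted dose-response curve.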

[2] = tested on: BT-549; test: as above
Procedure, shortened: as §1

[3] = tested on: CAL-120; test: as above
Procedure, shortened: as §1

[4] = tested on: CAL-148; test: as above
Procedure, shortened: as §1

[5] = tested on: CAL-51; test: as above
Procedure, shortened: as §1

[6] = tested on: CAL-85-1; test: as above
Procedure, shortened: as §1

[7] = tested on: DU-4475; test: as above
Procedure, shortened: as §1

[8] = tested on: HCC1143; test: as above
Procedure, shortened: as §1

[9] = tested on: HCC1599; test: as above
Procedure, shortened: as §1

[10] = tested on: HDQ-P1; test: as above
Procedure, shortened: as §1

[11] = tested on: Hs578T; test: as above
Procedure, shortened: as §1

[12] = tested on: MDA-MB-231; test: as above
Procedure, shortened: as §1

[13] = tested on: MDA-MB-436; test: as above
Procedure, shortened: as §1

[14] = tested on: MDA-MB-453; test: as above
Procedure, shortened: as §1

[15] = tested on: MDA-MB-468; test: as above
Procedure, shortened: as §1

[16] = tested on: BT-474; test: normalised viability (% of control), CellTiter-Blue; higher = more viable cells (about 100 = DMSO control)
Procedure, shortened: (§2)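 Seeded at 20 µl suspension per well onto compound-loaded 384-well plates, breast cancer cell lines were incubated 72 h. CellTiter-Blue fluorescence at 560/590 nm was then read, with each plate normalised to vehicle (100) and a positive kill control (0). Normalised viability is reported at a single listed concentration of the series.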

[17] = tested on: BT-549; test: as above
Procedure, shortened: as §2

[18] = tested on: CAL-148; test: as above
Procedure, shortened: as §2

[19] = tested on: CAL-51; test: as above
Procedure, shortened: as §2

[20] = tested on: CAL-85-1; test: as above
Procedure, shortened: as §2

[21] = tested on: DU-4475; test: as above
Procedure, shortened: as §2

[22] = tested on: HCC1937; test: as above
Procedure, shortened: as §2

[23] = tested on: HDQ-P1; test: as above
Procedure, shortened: as §2

[24] = tested on: Hs578T; test: as above
Procedure, shortened: as §2

[25] = tested on: MFM-223; test: as above
Procedure, shortened: as §2

Molecule `Cc1cnc(NC(=O)Nc2cc(Br)c(C)cc2OC[C@@H]2CNCCO2)cn1` [Rabusertib] has a drug sensitivity score [1] of 0, a drug sensitivity score [2] of 0 and a drug sensitivity score [3] of 0. For the same molecule, the drug sensitivity score [4] was 0.673, the drug sensitivity score [5] was 0 and the drug sensitivity score [6] was 0. The drug sensitivity score [7] was 0, the drug sensitivity score [8] was 0 and the drug sensitivity score [9] was 0. The drug sensitivity score [10] was 0, the drug sensitivity score [11] was 0 and the drug sensitivity score [12] was 0. The drug sensitivity score [13] was 0, the drug sensitivity score [14] was 0 and the drug sensitivity score [15] was 0.
With `CC[C@H](C)C(=O)O[C@H]1C[C@H](O)C=C2C=C[C@H](C)[C@H](CC[C@@H](O)C[C@@H](O)CC(=O)O)[C@H]21` [Pravastatin] the drug sensitivity score [1] was 0, the drug sensitivity score [2] was 0.618 and the drug sensitivity score [3] was 0. It also gave a drug sensitivity score [4] of 0, a drug sensitivity score [5] of 5.33 and a drug sensitivity score [6] of 0. For the same molecule, the drug sensitivity score [7] was 0, the drug sensitivity score [8] was 0 and the drug sensitivity score [9] was 0. The drug sensitivity score [10] was 0, the drug sensitivity score [11] was 0 and the drug sensitivity score [12] was 4.52. For the same molecule, the drug sensitivity score [13] was 32.8, the drug sensitivity score [14] was 0 and the drug sensitivity score [15] was 2.44.
In the case of `O=C(/C=C/c1cccnc1)NCCCCC1CCN(C(=O)c2ccccc2)CC1` [Daporinad], the drug sensitivity score [1] is reported as 0, the drug sensitivity score [2] is reported as 0 and the drug sensitivity score [3] is reported as 0. The drug sensitivity score [4] was 0, the drug sensitivity score [5] was 0 and the drug sensitivity score [6] was 0. It also gave a drug sensitivity score [7] of 0, a drug sensitivity score [8] of 0 and a drug sensitivity score [9] of 0. The drug sensitivity score [10] was 0, the drug sensitivity score [11] was 0 and the drug sensitivity score [12] was 0. The drug sensitivity score [13] was 0, the drug sensitivity score [14] was 0 and the drug sensitivity score [15] was 0.89.
`C=CC(=O)N1CCC[C@@H](n2nc(-c3ccc(Oc4ccccc4)cc3)c3c(N)ncnc32)C1` [Ibrutinib] was tested, and the drug sensitivity score [1] was 2.25, the drug sensitivity score [2] was 0 and the drug sensitivity score [3] was 0. For the same molecule, the drug sensitivity score [4] was 0, the drug sensitivity score [5] was 0.377 and the drug sensitivity score [6] was 4.71. The drug sensitivity score [7] was 0, the drug sensitivity score [8] was 0 and the drug sensitivity score [9] was 0. It also gave a drug sensitivity score [10] of 0.282, a drug sensitivity score [11] of 0 and a drug sensitivity score [12] of 0. It also gave a drug sensitivity score [13] of 0, a drug sensitivity score [14] of 1.03 and a drug sensitivity score [15] of 0.
`CC[C@H](Nc1ncnc2[nH]cnc12)c1nc2cccc(F)c2c(=O)n1-c1ccccc1` [GS-1101] showed a drug sensitivity score [1] of 0, a drug sensitivity score [2] of 0 and a drug sensitivity score [3] of 0. The drug sensitivity score [4] was 0, the drug sensitivity score [5] was 0 and the drug sensitivity score [6] was 0. The drug sensitivity score [7] was 0, the drug sensitivity score [8] was 0 and the drug sensitivity score [9] was 0. For the same molecule, the drug sensitivity score [10] was 0, the drug sensitivity score [11] was 0 and the drug sensitivity score [12] was 4.13. For the same molecule, the drug sensitivity score [13] was 0, the drug sensitivity score [14] was 0 and the drug sensitivity score [15] was 3.82.
With `O=C(O)C(=O)O.[NH-][C@@H]1CCCC[C@H]1[NH-].[Pt+2]` [Oxaliplatin] the normalised viability ([16]; 10 nM) was 125%, the normalised viability ([16]; 1000 nM) was 118% and the normalised viability ([16]; 10000 nM) was 83.5%. It also gave a normalised viability ([17]; 10 nM) of 93.9%, a normalised viability ([17]; 1000 nM) of 74.2% and a normalised viability ([17]; 10000 nM) of 52.6%. It also gave a normalised viability ([18]; 3 nM) of 93%, a normalised viability ([18]; 30 nM) of 106% and a normalised viability ([18]; 100 nM) of 120%. The normalised viability ([19]; 3 nM) was 97.9%, the normalised viability ([19]; 30 nM) was 92.2% and the normalised viability ([19]; 100 nM) was 94.9%. It also gave a normalised viability ([20]; 3 nM) of 99%, a normalised viability ([20]; 30 nM) of 83.2% and a normalised viability ([20]; 100 nM) of 87.3%. The normalised viability ([21]; 3 nM) was 112%, the normalised viability ([21]; 30 nM) was 106% and the normalised viability ([21]; 100 nM) was 100%. The normalised viability ([22]; 10 nM) was 90.7%, the normalised viability ([22]; 1000 nM) was 82.2% and the normalised viability ([22]; 10000 nM) was 33.9%. The normalised viability ([23]; 3 nM) was 110%, the normalised viability ([23]; 30 nM) was 103% and the normalised viability ([23]; 100 nM) was 107%. It also gave a normalised viability ([24]; 10 nM) of 106%, a normalised viability ([24]; 1000 nM) of 129% and a normalised viability ([24]; 10000 nM) of 66.9%. It also gave a normalised viability ([25]; 10 nM) of 98.6%, a normalised viability ([25]; 1000 nM) of 94.1% and a normalised viability ([25]; 10000 nM) of 50.5%. It also gave a drug sensitivity score [1] of 0, a drug sensitivity score [2] of 0 and a drug sensitivity score [3] of 0. The drug sensitivity score [5] was 0, the drug sensitivity score [6] was 0 and the drug sensitivity score [7] was 0. It also gave a drug sensitivity score [8] of 0, a drug sensitivity score [9] of 0 and a drug sensitivity score [10] of 1. The drug sensitivity score [11] was 0, the drug sensitivity score [12] was 0 and the drug sensitivity score [13] was 0. The drug sensitivity score [14] was 0 and the drug sensitivity score [15] was 0.
`CNC(=O)c1cc(Oc2ccc(NC(=O)Nc3cc(C(C)(C)C)nn3-c3ccc4ncccc4c3)c(F)c2)ccn1` [Rebastinib] was tested, and the drug sensitivity score [1] was 0, the drug sensitivity score [2] was 0 and the drug sensitivity score [3] was 0. For the same molecule, the drug sensitivity score [4] was 0, the drug sensitivity score [5] was 0 and the drug sensitivity score [6] was 2.09. For the same molecule, the drug sensitivity score [7] was 0, the drug sensitivity score [8] was 0 and the drug sensitivity score [9] was 0. For the same molecule, the drug sensitivity score [10] was 4.01, the drug sensitivity score [11] was 0 and the drug sensitivity score [12] was 0. It also gave a drug sensitivity score [13] of 0, a drug sensitivity score [14] of 0 and a drug sensitivity score [15] of 0.
In the case of `COc1cc2nccc(Oc3ccc(NC(=O)Nc4cc(C)on4)c(Cl)c3)c2cc1OC` [Tivozanib], the normalised viability ([16]; 10 nM) is reported as 111%, the normalised viability ([16]; 1000 nM) is reported as 96.4% and the normalised viability ([16]; 10000 nM) is reported as 62.8%. For the same molecule, the normalised viability ([17]; 10 nM) was 82.7%, the normalised viability ([17]; 1000 nM) was 97.6% and the normalised viability ([17]; 10000 nM) was 36.5%. The normalised viability ([18]; 3 nM) was 95%, the normalised viability ([18]; 30 nM) was 96.6% and the normalised viability ([18]; 100 nM) was 91.8%. It also gave a normalised viability ([19]; 3 nM) of 100%, a normalised viability ([19]; 30 nM) of 103% and a normalised viability ([19]; 100 nM) of 96.3%. It also gave a normalised viability ([20]; 3 nM) of 100%, a normalised viability ([20]; 30 nM) of 107% and a normalised viability ([20]; 100 nM) of 103%. For the same molecule, the normalised viability ([21]; 3 nM) was 103%, the normalised viability ([21]; 30 nM) was 101% and the normalised viability ([21]; 100 nM) was 119%. For the same molecule, the normalised viability ([22]; 10 nM) was 127%, the normalised viability ([22]; 1000 nM) was 88.2% and the normalised viability ([22]; 10000 nM) was 63%. The normalised viability ([23]; 3 nM) was 83.1%, the normalised viability ([23]; 30 nM) was 85.8% and the normalised viability ([23]; 100 nM) was 99.7%. For the same molecule, the normalised viability ([24]; 10 nM) was 109%, the normalised viability ([24]; 1000 nM) was 84.8% and the normalised viability ([24]; 10000 nM) was 58.2%. The normalised viability ([25]; 10 nM) was 93.6%, the normalised viability ([25]; 1000 nM) was 55.3% and the normalised viability ([25]; 10000 nM) was 40.2%. The drug sensitivity score [1] was 0, the drug sensitivity score [2] was 0 and the drug sensitivity score [3] was 0. For the same molecule, the drug sensitivity score [4] was 0, the drug sensitivity score [6] was 0 and the drug sensitivity score [7] was 0. The drug sensitivity score [8] was 0, the drug sensitivity score [9] was 0 and the drug sensitivity score [10] was 0. The drug sensitivity score [11] was 3.86, the drug sensitivity score [12] was 0 and the drug sensitivity score [13] was 0. For the same molecule, the drug sensitivity score [14] was 0 and the drug sensitivity score [15] was 0.
